Data as given in paper PMC5332327 (Journal of the American Chemical Society, 2017).

Target: Nan[KS1][AT1] (Streptomyces nanchangensis, UniProt Q7WTF5)
Assay: coupled KS-KR assay, chiral GC-MS of diketide methyl ester
Format: biochemical
Conditions: holo-NanACP1, NADPH, KR domain, pH 7.2

Chain of Nan[KS1][AT1] (Q7WTF5 1029-1965): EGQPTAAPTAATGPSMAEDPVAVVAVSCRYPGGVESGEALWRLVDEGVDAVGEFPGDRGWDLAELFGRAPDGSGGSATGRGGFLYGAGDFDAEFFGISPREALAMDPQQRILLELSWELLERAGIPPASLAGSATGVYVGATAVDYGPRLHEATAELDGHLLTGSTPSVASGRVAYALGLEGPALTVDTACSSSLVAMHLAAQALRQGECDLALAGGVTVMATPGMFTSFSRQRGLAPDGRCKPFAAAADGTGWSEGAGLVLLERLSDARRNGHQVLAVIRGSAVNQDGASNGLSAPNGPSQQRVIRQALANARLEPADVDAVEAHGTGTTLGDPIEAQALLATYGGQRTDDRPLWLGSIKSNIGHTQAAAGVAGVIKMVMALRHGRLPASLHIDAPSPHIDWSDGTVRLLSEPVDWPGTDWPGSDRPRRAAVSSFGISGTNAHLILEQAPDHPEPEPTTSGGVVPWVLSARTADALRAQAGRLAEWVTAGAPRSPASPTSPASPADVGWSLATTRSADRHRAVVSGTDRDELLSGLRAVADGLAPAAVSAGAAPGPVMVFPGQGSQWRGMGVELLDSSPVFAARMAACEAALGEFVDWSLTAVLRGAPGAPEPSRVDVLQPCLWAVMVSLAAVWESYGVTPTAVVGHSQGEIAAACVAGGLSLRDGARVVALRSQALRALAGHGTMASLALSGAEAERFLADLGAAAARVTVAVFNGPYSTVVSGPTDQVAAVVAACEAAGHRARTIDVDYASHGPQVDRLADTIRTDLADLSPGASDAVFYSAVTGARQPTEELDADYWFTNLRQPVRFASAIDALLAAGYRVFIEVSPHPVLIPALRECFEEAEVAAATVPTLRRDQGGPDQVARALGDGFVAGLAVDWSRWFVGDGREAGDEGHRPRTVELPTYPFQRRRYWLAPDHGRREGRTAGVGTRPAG

`CC(C(=O)O)C(=O)SCCNC(=O)CCNC(=O)[C@H](O)C(C)(C)COP(=O)(O)OP(=O)(O)OC[C@H]1O[C@@H](n2cnc3c(N)ncnc32)[C@H](O)[C@@H]1OP(=O)(O)O` (some centres unmarked) [methylmalonyl-CoA] was tested, and the “coupled KS-KR assay, chiral GC-MS of diketide methyl ester” value (300 uM methylmalonyl-CoA, propionyl-SNAC, extender) was “condensation between propionyl-SNAC and methylmalonyl-CoA catalyzed by the polyether synthase didomain Nan[KS1][AT1]”.
In the case of `CCC(=O)SCCNC(C)=O` [propionyl-SNAC], the “coupled KS-KR assay, chiral GC-MS of diketide methyl ester” value (5 mM propionyl-SNAC, methylmalonyl-CoA, primer) is reported as “condensation between propionyl-SNAC and methylmalonyl-CoA catalyzed by the polyether synthase didomain Nan[KS1][AT1]”.
